Measurements as given in patent US20110165085A1, “TUMOR SELECTIVE FLUORESCENT STAINING AGENT” (THE UNIVERSITY OF TOKYO, priority 2006, published 2011).

Experiments:
[1] = test system: intracellular esterase (RGK1 and RGM1 cell lysates); experiment: Hydrolytic enzyme activity for FDA in the two types of cell lysates; type: biochemical, rat
Excerpt: FDA is an esterase-sensitive fluorescent probe, and it enters into a cell by diffusion, then is hydrolyzed by an intracellular esterase to produce a fluorescent fluorescein, and gradually leaks out of the cell. Since the fluorescein is more hydrophilic compared with FDA, the leakage of the fluorescein out of the cell occurs much more slowly than the uptake of FDA into the cell. This process was compared for the normal cells and the cancer cells.

[2] = test system: RGK1 (transformed, cancer model) and RGM1 (normal gastric mucosal epithelium) cells; experiment: Flow cytometry screening: average fluorescence intensity ratio of RGK1 relative to RGM1; type: cell-based, rat
Experimental: Screening for candidate compounds was performed in a cultured cell system. As cultured cells, rat normal gastric mucosal epithelium derived cells, RGM1, and transformed cells thereof, RGK1, were used as model cells of normal cell and cancer cell, respectively. For the culture of RGM1 and RGK1, a DMEM/HAM F12 (1:1) medium (10% FBS, 0.1% penicillin streptomycin) was used. Each of the compounds shown below (concentration: 0-1 μM) was loaded on these cells for 10 minutes, then the medium was replaced with the medium not containing the compounds, and after a given time, average fluorescence intensity was determined by flow cytometry. Effectiveness of each compound was evaluated on the basis of average of fluorescence intensity ratio of RGK1 relative to RGM1.
Various ester derivatives converted from acetyl ester of FDA shown in Table I were compared by flow cytometry in the same manner as that used in Example 1.

esophagus cancer lesion = experiment: Fluorescence endoscopic imaging of NMBA rat esophagus cancer model; type: in vivo; settings: endoscope (FIG. 4)
Experimental: By using FDAcr, imaging of an NMBA rat, an esophagus cancer model, was performed. A rat (10-week old, male) was subcutaneously injected with 1 mg of NMBA 5 times per week for the first to 5th weeks, and once per week for 6th to 15th weeks, and used for the experiment after 16th week. The rat was anesthetized by intraperitoneal administration of Nembutal (1 mL/kg body weight) and fixed on a rest in the dorsal position to maintain the airway. An endoscope was inserted into the esophagus for observation. […] In the same manner as Example 5, a fluorescent endoscopic image was obtained by using Cy-7, a cyanine near-infrared fluorescent dye.

[3] = test system: cancer cells and normal cells; experiment: Imaging of cancer and normal cells under a fluorescence microscope; type: cell-based, rat; settings: fluorescence microscope IX71, excitation 470-490 nm, filter 500 nm
Experimental: Imaging was performed by using FDAcr under a fluorescence microscope.

colon cancer lesion = experiment: Fluorescence endoscopic imaging of colon cancer model rat; type: in vivo; settings: enema 15 ml of 100 μM in PBS, 3 minutes, fiberscope (FIG. 5)
Experimental: By using FEAcr, imaging of a colon cancer model rat was performed. A colon cancer model rat was anesthetized with ether, and inside the colon was washed with 0.6% aqueous acetic acid. The inside of the colon was washed two to three times with PBS maintained at 37° C., and then an enema with 15 ml of 100 μM FDAcr (PBS solution) was performed from the anus and the anus was clogged to stand for 3 minutes. After 3 minutes, the inside of the colon was washed two to three times with PBS maintained at 37° C. A fiberscope (BF-3C40) was inserted in the colon to observe pathological legions.

SMILES | hydrolytic activity for FDA, RGK1 versus RGM1 [1] | average of fluorescence intensity ratio of RGK1 relative to RGM1 ([2]; compound 0-1 μM loaded 10 minutes, medium replaced, flow cytometry after a given time, among candidate compounds (FIG. 1)) | fluorescence intensity around esophagus cancer lesion versus normal tissues (esophagus cancer lesion) | fluorescence in cancer cells versus normal cells [3] | fluorescence at colon cancer lesion (colon cancer lesion) | performance for distinguishing cancer cells from normal cells (fluorescence intensity ratio) ([2]; flow cytometry as in Example 1, compared among ester derivatives of Table 1 (FIG. 2))
CC(=O)Oc1ccc2c(c1)Oc1cc(OC(C)=O)ccc1C21OC(=O)c2ccccc21 [FDA, fluorescein diacetate] | about twice higher hydrolytic activity | highest fluorescence intensity ratio | – | – | – | –
C=CC(=O)Oc1ccc2c(c1)Oc1cc(OC(=O)C=C)ccc1C21OC(=O)c2ccccc21 [FDAcr, fluorescein diacrylate] | – | – | higher than that of normal tissues | Strong fluorescence was observed in the cancer cells | Strong fluorescence was observed at each colon cancer lesion | superior performance for distinguishing cancer cells from normal cells
